The record followed here is patent US20240158446A1, “CYCLIC COMPOUND HAVING SELECTIVE INHIBITORY ACTION ON KRAS OVER HRAS AND NRAS” (CHUGAI SEIYAKU KABUSHIKI KAISHA, priority 2021, published 2024).

The term pKd denotes −log10 of the Kd, conventionally taken in molar units.

Test [1] has as its target GDP-bound NRAS wild-type protein (Homo sapiens, UniProt P01111). The experiment in a line: Binding to NRAS by surface plasmon resonance (SPR), Single Cycle Kinetics. The following applies: SPR, GDP-bound NRAS wild-type protein vs GDP-bound KRAS wild-type protein. On the technique in general: Surface plasmon resonance follows binding to a sensor surface in real time, without labels.

In test [2] the target is GDP-bound HRAS wild-type protein (Homo sapiens, UniProt P01112). Description: Binding to HRAS by surface plasmon resonance (SPR), Single Cycle Kinetics. The note with it: SPR, GDP-bound HRAS wild-type protein vs GDP-bound KRAS wild-type protein.
The target of test [3] is GDP-bound KRAS wild-type protein (Homo sapiens, UniProt P01116). The experiment in a line: Binding to KRAS by surface plasmon resonance (SPR), Single Cycle Kinetics. The note with it: GDP-bound KRAS wild-type protein, read-out: KRAS KD.
Setting [4] is: SPR Single Cycle Kinetics, 1:1 binding model.

pKd: −log10 of the molar value. Like-named read-outs stand apart in the source and are kept apart here. Where a SMILES comes first, the peptide text is derived from it. Bridges are numbered along the chain shown (N, C = ends). [ ]: non-standard residue; d: D form. The star is where a group is joined. hPhe(3,5-F2-4-CF3) = N[C@@H](CCc1cc(F)c(C(F)(F)F)c(F)c1)C(=O)O; hPhe(3-Cl-4-CF3) = N[C@@H](CCc1ccc(C(F)(F)F)c(Cl)c1)C(=O)O; NPrPhe(4-CF3) = CCCN[C@@H](Cc1ccc(C(F)(F)F)cc1)C(=O)O; NMePhe(4-Me) = CN[C@@H](Cc1ccc(C)cc1)C(=O)O; NMeGly(cPent) = CN[C@H](C(=O)O)C1CCCC1; Pro(4,4-F2) = O=C(O)[C@@H]1CC(F)(F)CN1; Nva(3-Et) = CCC(CC)[C@H](N)C(=O)O; NMeD = CN[C@@H](CC(=O)O)C(=O)O; NMeL = CN[C@@H](CC(C)C)C(=O)O; Morpholide = C1CN(*)CCO1; Ac5c = NC1(C(=O)O)CCCC1; Aze = O=C(O)[C@@H]1CCN1; Ac4c = NC1(C(=O)O)CCC1; Sar = CNCC(=O)O

GDP-bound HRAS wild-type protein, sequence (P01112 whole entry): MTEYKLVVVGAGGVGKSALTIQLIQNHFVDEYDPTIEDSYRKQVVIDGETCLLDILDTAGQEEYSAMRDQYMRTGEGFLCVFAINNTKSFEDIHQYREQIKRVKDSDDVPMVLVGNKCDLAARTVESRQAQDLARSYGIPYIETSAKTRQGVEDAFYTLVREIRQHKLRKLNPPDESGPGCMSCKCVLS
GDP-bound KRAS wild-type protein, sequence (P01116 whole entry): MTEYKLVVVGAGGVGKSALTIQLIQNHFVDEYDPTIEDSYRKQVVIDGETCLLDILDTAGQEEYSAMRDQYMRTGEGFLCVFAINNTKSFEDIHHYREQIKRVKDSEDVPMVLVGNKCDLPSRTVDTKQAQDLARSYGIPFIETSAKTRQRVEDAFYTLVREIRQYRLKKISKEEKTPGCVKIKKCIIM
GDP-bound NRAS wild-type protein, sequence (P01111 whole entry): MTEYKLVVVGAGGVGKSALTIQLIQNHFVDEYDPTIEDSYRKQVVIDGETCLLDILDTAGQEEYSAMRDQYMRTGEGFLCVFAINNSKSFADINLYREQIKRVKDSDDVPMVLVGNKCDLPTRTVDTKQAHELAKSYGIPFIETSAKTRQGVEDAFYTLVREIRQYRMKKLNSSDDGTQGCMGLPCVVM

Turning to `CC[C@H](C)[C@@H]1NC(=O)[C@H](CC(C)C)N(C)C(=O)C[C@@H](C(=O)N2CCOCC2)N(C)C(=O)[C@H](C2CCCC2)N(C)C(=O)C2(CCCC2)NC(=O)[C@@H]2CCCN2C(=O)[C@H](CCc2ccc(C(F)(F)F)c(Cl)c2)NC(=O)CN(C)C(=O)[C@H](Cc2ccc(C)cc2)N(C)C(=O)CN(C)C(=O)CN(C)C1=O` [PP0018] ([NMeL]I[Sar][Sar][NMePhe(4-Me)][Sar][hPhe(3-Cl-4-CF3)]P[Ac5c][NMeGly(cPent)][NMeD]-Morpholide; lactam N-11), the “NRAS/KRAS (ratio of KD value for NRAS to KD value for KRAS)” value in test [1] was “C (A compound having a KD ratio of 0.1 or more and less than 3 is denoted as C)”. Moreover, the “HRAS/KRAS (ratio of KD value for HRAS to KD value for KRAS)” value in test [2] is “C (A compound having a KD ratio of 0.1 or more and less than 3 is denoted as C)”. Besides, the pKd in test [3] (setting [4]) is 10.11.

As to `CCCN1C(=O)[C@@H]2CCN2C(=O)CN(C)C(=O)[C@H]([C@@H](C)CC)NC(=O)[C@H](CC(C)C)N(C)C(=O)C[C@@H](C(=O)N(C)C)N(C)C(=O)[C@H](C2CCCC2)N(C)C(=O)C2(CCC2)NC(=O)[C@@H]2CC(F)(F)CN2C(=O)[C@H](CCc2ccc(C(F)(F)F)c(Cl)c2)NC(=O)CN(C)C(=O)[C@@H]1Cc1ccc(C(F)(F)F)cc1` [PP0443] ([NMeL]I[Sar][Aze][NPrPhe(4-CF3)][Sar][hPhe(3-Cl-4-CF3)][Pro(4,4-F2)][Ac4c][NMeGly(cPent)][NMeD]-NMe2; lactam N-11), the “NRAS/KRAS (ratio of KD value with respect to NRAS to KD value with respect to KRAS)” value in test [1] was “C (A compound having a KD ratio of 0.1 or more and less than 3 is denoted as C)”. Moreover, in test [2], the “HRAS/KRAS (ratio of KD value with respect to HRAS to KD value with respect to KRAS)” value was “C (A compound having a KD ratio of 0.1 or more and less than 3 is denoted as C)”. The pKd in test [3] (setting [4]) was 10.57.

Regarding `CCO[C@@H]1C[C@H]2C(=O)NC3(CCC3)C(=O)N(C)[C@@H](C3CCCC3)C(=O)N(C)[C@H](C(=O)N(C)C)CC(=O)N(C)[C@@H](CC)C(=O)N[C@@H]([C@@H](C)CC)C(=O)N(C)CC(=O)N(C)[C@H]3CCCCN(C3=O)[C@@H](Cc3ccc(C(F)(F)F)cc3)C(=O)N(C)CC(=O)N[C@@H](CCc3ccc(OC(F)F)c(F)c3)C(=O)N2C1` [PP0986], the “NRAS/KRAS (ratio of KD value for NRAS to KD value for KRAS)” value in test [1] is “C (A compound having a KD ratio of 0.1 or more and less than 3 is denoted as C)”. Besides, the “HRAS/KRAS (ratio of KD value for HRAS to KD value for KRAS)” value in test [2] is “C (A compound having a KD ratio of 0.1 or more and less than 3 is denoted as C)”. Besides, the pKd in test [3] (SPR, Single Cycle Kinetics) was 9.57.

In the case of `CC[C@H](C)[C@@H]1NC(=O)[C@H](C)N(C)C(=O)C[C@@H](C(=O)N2CCOCC2)N(C)C(=O)[C@H](C2CCCC2)N(C)C(=O)C2(CCCC2)NC(=O)[C@@H]2CCCN2C(=O)[C@H](CCc2cc(F)c(C(F)(F)F)c(F)c2)NC(=O)CN(C)C(=O)[C@H](Cc2ccc(C(F)(F)F)cc2)N2CCCC[C@@H](C2=O)N(C)C(=O)CN(C)C1=O` [PP0549], in test [1], the “NRAS/KRAS (ratio of KD value with respect to NRAS to KD value with respect to KRAS)” value was “C (A compound having a KD ratio of 0.1 or more and less than 3 is denoted as C)”. Also, the “HRAS/KRAS (ratio of KD value with respect to HRAS to KD value with respect to KRAS)” value in test [2] is “B (a compound having 3 or more and less than 10 is denoted as B)”. The pKd in test [3] (setting [4]) is 10.21.

`CCCN1C(=O)CN(C)C(=O)CN(C)C(=O)[C@H](C(CC)CC)NC(=O)[C@H](CC(C)C)N(C)C(=O)C[C@@H](C(=O)N(C)C)N(C)C(=O)[C@H](C2CCCC2)N(C)C(=O)C2(CCCC2)NC(=O)[C@@H]2CCCN2C(=O)[C@H](CCc2cc(F)c(C(F)(F)F)c(F)c2)NC(=O)CN(C)C(=O)[C@@H]1Cc1ccc(C(F)(F)F)cc1` [PP0747] ([NMeL][Nva(3-Et)][Sar][Sar][NPrPhe(4-CF3)][Sar][hPhe(3,5-F2-4-CF3)]P[Ac5c][NMeGly(cPent)][NMeD]-NMe2; lactam N-11): the “NRAS/KRAS (ratio of KD value with respect to NRAS to KD value with respect to KRAS)” value in test [1] was “B (a compound having 3 or more and less than 10 is denoted as B)”. The “HRAS/KRAS (ratio of KD value with respect to HRAS to KD value with respect to KRAS)” value in test [2] was “C (A compound having a KD ratio of 0.1 or more and less than 3 is denoted as C)”. Further, in test [3] (setting [4]), the negative-log Kd (pKd) is 9.44.
